# Where a SMILES comes first, the peptide text is derived from it. [ ]: non-standard residue; d: D form. The star is where a group is joined. 5FAM = O=C1OC2(c3ccc(O)cc3Oc3cc(O)ccc32)c2ccc(C(=O)*)cc21
# Legend:
# [1] = tested on: CAPNS1 KO MDA-MB-231 cells; assay: Single-cell migration on collagen (IncuCyte video microscopy, DiPer MSD analysis), CAPNS1 KO cells; format: cell-based, human
# Procedure: (§1) For the migration assay, plates were coated with 15 µg/mL rat tail collagen type 1 (BD-Biosciences, Franklin Lakes, NJ, USA). Cells were seeded at 1000 cells per well. Plates were imaged using the IncuCyte Live-Cell Analysis System (Essen Bioscience, Ann Arbor, MI, USA) every 10 min for 24 h. Cell migration was tracked using the “Track Object” program in Metamorph 7.8 (Molecular Devices, LLC., San Jose, CA, USA). The resulting coordinates were analyzed with the DiPer program to measure speed and directional persistence of migration. Experiments were conducted in triplicate, each with at least 20 cells per genotype. The results are presented as the mean ± standard error of the mean. […]
# (§2) Migration propensity of calpain-deficient cells was measured by IncuCyte video microscopy of single-cell trajectories on a collagen substrate, which were then analyzed according to an established protocol using three measures of migration: (1) speed of migration (a raw value of displacement from frame to frame); (2) directionality (a ratio of cell displacement to path); and (3) mean square displacement (MSD, how much area a migrating cell has covered).
# (§3) To evaluate the effect of this calpain inhibitor, we first measured MDA-MB-231 cancer cell migration in the presence of 4 µM mB27 (Figure 5a,b). […] A thorough quantification and statistical analysis of cell migration are presented in Supplementary Information 12.
# [2] = tested on: MDA-MB-231 cells; assay: Single-cell migration on collagen (IncuCyte video microscopy, DiPer MSD analysis), WT cells; format: cell-based, human; conditions: WT + mB27, 4 µM; Std. Error 0.6565; WT + vehicle slope 14.65
# Procedure: as §1, §2, §3
# [3] = tested on: WT MDA-MB-231 tumors; assay: Orthotopic engraftment resect-and-wait model of mammary tumor growth and lung metastasis; format: in vivo, Rag2-/- IL2Rγc-/- mice; conditions: n = 10
# Procedure: Cells were washed, counted, and resuspended in PBS to achieve a concentration of 1,000,000 cells in 40 µL and placed on ice and supplemented with Growth Factor Reduced Matrigel (Corning Inc., Corning, NY, USA, catalog number 354,230) in a 10:40 Matrigel/cell suspension ratio. The resulting mixture was maintained on ice until the engraftment. Matrigel was included in the engraftment suspension to promote initial cell retention in the engrafted bolus in the mammary fat pad and to ensure consistent tumor onset. While MDA-MB-231 cells can form tumors without matrix in Rag2^-/- IL2Rγc^-/- mice, the addition of Matrigel could reduce experimental variability and mimic the basement membrane or extracellular matrix components of the tumor microenvironment.
# All animal procedures were approved by the university animal care committee in accordance with guidelines from the Canadian Council on Animal Care. […]
# The wound clips were removed one week after the engraftment surgery, and the tumor size was measured daily until it reached 600 mm^3. […] When tumors reached the maximum volume (19 to 22 days after the engraftment surgery, determined individually for every mouse), they were resected by recovery surgery, and mice were then monitored for 12 days before being euthanized with CO2 and cervical dislocation and assessed for metastasis. […]
structure (smiles),measurement,setting,value
CC[C@H](C)[C@H](NC(=O)[C@H](Cc1ccc(O)cc1)NC(=O)[C@@H](NC(=O)[C@H](CO)NC(=O)[C@H](CO)NC(=O)[C@H](CCSC)NC(=O)[C@H]1CCCN1C(=O)[C@@H](CC(=O)O)NC(=O)c1ccc2c(c1)C(=O)OC21c2ccc(O)cc2Oc2cc(O)ccc21)[C@@H](C)O)C(=O)N[C@@H](CCC(=O)O)C(=O)N[C@@H](CCC(=O)O)C(=O)N[C@@H](CC(C)C)C(=O)NCC(=O)N[C@@H](CCCCN)C(=O)N[C@@H](CCCNC(=N)N)C(=O)N[C@@H](CCC(=O)O)C(=O)N[C@H](C(=O)N[C@H](C(=O)N[C@H](C(=O)N1CCC[C@H]1C(=O)N1CCC[C@H]1C(=O)N[C@@H](CCCCN)C(=O)N[C@@H](Cc1ccc(O)cc1)C(=O)N[C@@H](CCCNC(=N)N)C(=O)N[C@@H](CCC(=O)O)C(=O)N[C@@H](CC(C)C)C(=O)N[C@@H](CC(C)C)C(=O)N[C@@H](C)C(=O)N[C@@H](CCCNC(=N)N)C(=O)N[C@@H](CCCNC(=N)N)C(=O)N[C@@H](CCCNC(=N)N)C(=O)N[C@@H](CCCNC(=N)N)C(=O)N[C@@H](CCCNC(=N)N)C(=O)N[C@@H](CCCNC(=N)N)C(=O)N[C@H](CCCNC(=N)N)C(=O)N[C@H](CCCNC(=N)N)C(=O)N[C@H](CCCNC(=N)N)C(=O)O)[C@@H](C)CC)[C@@H](C)O)C(C)C [mB27] (5FAM-[dD][dP]MSSTYIEELGKREVTIPPKYRELLARRRRRR[dR][dR][dR]-OH; N-terminus and C-terminus assumed),Best-fit slope of MSD,"[1]; CAPNS1 KO + mB27, 4 µM, Std. Error 0.4558, CAPNS1 KO + vehicle slope 3.642",3.365
same,Effect of peptide on migration of CAPNS1 KO cells (in words),"[1]; CAPNS1 KO MDA-MB-231 cells, 4 µM peptide, ANCOVA p = 0.6134",no effect
same,Best-fit slope of MSD,[2],7.652
same,Tumor growth rate,"[3]; 5 mg/kg/day intraperitoneally for 14 days from 50 mm^3 to 600 mm^3 tumor volume, vehicle 0.431 ± 0.046, p = 0.8554",0.428 ± 0.024 mm diameter per day
same,Lung metastasis,"[3]; 5 mg/kg/day intraperitoneally for 14 days, tumor resection at 600 mm^3, lungs assessed 12 days later, vehicle 1.12 ± 1.35, p = 0.102 (not significant)",0.34 ± 0.20 metastases per mm^2
